Results published in US7205306B2, “Substituted pyrazinones, pyridines and pyrimidines as corticotropin releasing factor ligands” (Bristol-Myers Squibb Pharma Company, priority 2001, dated 2007).
Where a name gives a salt, the structure may show the parent alone.

Row | Compound | melting point
1 | CCC(COC)Nc1nc(C)nc(N2CCc3cc(OC)cc(Cl)c32)c1I (stereo not drawn) [Example 74, 4-(7-chloro-5-methoxy-2,3-dihydro-1H-indol-1-yl)-5-iodo-6-[1-(1-methoxymethyl)propylamino]-2-methylpyrimidine] | 150 to 152 °C
2 | CCC(COC)Nc1nc(C)nc(N2CCc3cc(OC)cc(Cl)c32)c1C=O (stereo not drawn) [Example 76, 4-(7-chloro-5-methoxy-2,3-dihydro-1H-indol-1-yl)-5-formyl-6-[1-(1-methoxymethyl)propylamino]-2-methylpyrimidine] | 150 to 153 °C
3 | CCC(CC)Nc1nc(C)nc(N2CCc3cc(Cl)cc(Cl)c32)c1C=O [Example 6, 4-(5,7-dichloro-2,3-dihydro-1H-indol-1-yl)-6-(1-ethylpropylamino)-5-formyl-2-methylpyrimidine] | 182 to 184 °C
4 | CC[C@@H](C1CC1)n1cc(Cl)nc(N2CCc3cc(OC)cc(Br)c32)c1=O (as salt: hydrochloride) [Example 515, 3-(7-Bromo-5-methoxy-2,3-dihydro-1H-indol-1-yl)-5-chloro-1-[(1S)-1-cyclopropylpropyl]-2(1H)-pyrazinone] | 138 to 140 °C
5 | CC[C@H](C1CC1)n1cc(Cl)nc(N2CCc3cc(Br)cc(Cl)c32)c1=O [Example 542, 3-(5-Bromo-7-chloro-2,3-dihydro-1H-indol-1-yl)-5-chloro-1-[(1R)-1-cyclopropylpropyl]-2(1H)-pyrazinone] | 154 to 156 °C
6 | CC[C@@H](C1CC1)n1cc(Cl)nc(N2CCc3cc(OC)cc(C)c32)c1=O (as salt: hydrochloride) [Example 516, 5-Chloro-1-[(1S)-1-cyclopropylpropyl]-3-(5-methoxy-7-methyl-2,3-dihydro-1H-indol-1-yl)-2(1H)-pyrazinone] | 156 to 158 °C
7 | CC[C@H](COC)n1cc(Br)nc(N2CCc3cc(OC)cc(Br)c32)c1=O (as salt: hydrochloride) [Example 525, 5-Bromo-3-(7-bromo-5-methoxy-2,3-dihydro-1H-indol-1-yl)-1-[(1R)-1-(methoxymethyl)propyl]-2(1H)-pyrazinone] | 122 to 123 °C
8 | CCC(CC)n1cc(Cl)nc(N2CCc3cc(Cl)cc(Cl)c32)c1=O [Example 401, 5-Chloro-3-(5,7-dichloro-2,3-dihydro-1H-indol-1-yl)-1-(1-ethylpropyl)-2(1H)-pyrazinone] | 168 to 170 °C
9 | CCC(CC)n1cc(Cl)nc(N2CCc3cc(OC)cc(C)c32)c1=O (as salt: hydrochloride) [Example 431, 5-Chloro-1-(1-ethylpropyl)-3-(5-methoxy-7-methyl-2,3-dihydro-1H-indol-1-yl)-2(1H)-pyrazinone] | 164 to 165 °C
10 | CCC(CCOC)n1cc(Cl)nc(N2CCc3cc(Cl)cc(Cl)c32)c1=O (stereo not drawn) [Example 410, 5-Chloro-3-(5,7-dichloro-2,3-dihydro-1H-indol-1-yl)-1-(1-ethyl-3-methoxypropyl)-2(1H)-pyrazinone] | 95 to 97 °C
11 | CC[C@H](C1CC1)n1cc(Cl)nc(N2CCc3cc(Cl)cc(Cl)c32)c1=O [Example 511, 5-Chloro-1-[(1R)-1-cyclopropylpropyl]-3-(5,7-dichloro-2,3-dihydro-1H-indol-1-yl)-2(1H)-pyrazinone] | 166 to 168 °C
12 | CC[C@H](C1CC1)n1cc(Cl)nc(N2CCc3cc(Br)cc(Br)c32)c1=O [Example 512, 5-Chloro-1-[(1R)-1-cyclopropylpropyl]-3-(5,7-dibromo-2,3-dihydro-1H-indol-1-yl)-2(1H)-pyrazinone] | 164 to 165 °C
13 | CCC(CC)Nc1nc(C)nc(N2CCc3cc(Cl)cc(Cl)c32)c1Br [Example 3, 5-bromo-4-(5,7-dichloro-2,3-dihydro-1H-indol-1-yl)-6-(1-ethylpropylamino)-2-methylpyrimidine] | 136 to 138 °C

More lines, now with the values ahead:

Row | melting point | Compound
14 | 157 to 159 °C | CC[C@@H](C1CC1)n1cc(Cl)nc(N2CCc3cc(Cl)cc(Cl)c32)c1=O [Example 517, 5-Chloro-1-[(1S)-1-cyclopropylpropyl]-3-(5,7-dichloro-2,3-dihydro-1H-indol-1-yl)-2(1H)-pyrazinone]
15 | 102 to 103 °C | CC[C@H](COC)n1cc(Br)nc(N2CCCc3cc(OC)cc(Br)c32)c1=O [Example 554, 5-Bromo-3-(8-bromo-6-methoxy-1,2,3,4-tetrahydroquinoline)-1-[(1R)-1-(methoxymethyl)propyl]-2(1H)-pyrazinone]
16 | 143 to 145 °C | CCC(C)n1cc(Cl)nc(N2CCc3cc(OC)cc(Cl)c32)c1=O (stereo not drawn) (as salt: hydrochloride) [Example 501, 5-Chloro-3-(7-chloro-5-methoxy-2,3-dihydro-1H-indol-1-yl)-1-(1-methylpropyl)-2(1H)-pyrazinone]
17 | 126 to 127 °C | CC[C@@H](C1CC1)n1cc(Cl)nc(N2CCc3cc(Br)cc(Cl)c32)c1=O [Example 543, 3-(5-Bromo-7-chloro-2,3-dihydro-1H-indol-1-yl)-5-chloro-1-[(1S)-1-cyclopropylpropyl]-2(1H)-pyrazinone]
18 | 128 to 130 °C | CC[C@@H](C1CC1)n1cc(Cl)nc(N2CCc3cc(OC)cc(Cl)c32)c1=O (as salt: hydrochloride) [Example 514, 5-Chloro-3-(7-chloro-5-methoxy-2,3-dihydro-1H-indol-1-yl)-1-[(1S)-1-cyclopropylpropyl]-2(1H)-pyrazinone]
19 | 94 to 96 °C | COc1cc(C)c2c(c1)CCN2c1nc(Cl)cn(C(C(C)C)C(C)C)c1=O (as salt: hydrochloride) [Example 532]
20 | 100 to 102 °C | CC[C@@H](COC)n1cc(Cl)nc(N2CCc3cc(OC)cc(Br)c32)c1=O (as salt: hydrochloride) [Example 529, 3-(7-Bromo-5-methoxy-2,3-dihydro-1H-indol-1-yl)-5-chloro-1-[(1S)-1-(methoxymethyl)propyl]-2(1H)-pyrazinone]
21 | 197 to 199 °C | CCC(CC)n1cc(C#N)nc(N2CCc3cc(Cl)cc(Cl)c32)c1=O [Example 541, 6-(5,7-Dichloro-2,3-dihydro-1H-indol-1-yl)-4-(1-ethylpropyl)-4,5-dihydro-5-oxo-2-pyrazinecarbonitrile]
